# Measured values published in article PMC12843386, “Ly6/uPAR Protein from Asterias rubens Starfish Stimulates Migration and Invasion of Human Epithelial and Immune Cells” (Marine Drugs, 2025).
# Read-outs that look alike come from different tables or passages of the source. Bridges are numbered along the chain shown (N, C = ends). Where no end group is shown, it is not given here.
# Key:
# [1] = tested on: HaCaT keratinocytes; assay: Wound-healing (scratch) assay, collective migration of HaCaT keratinocytes; format: cell-based, human; details: 10 µM peptide, 24 h, serum-free; % of untreated control; n = 14 (Figure 4a,b)
# Procedure: Human HaCaT keratinocytes (ATCC, Manassas, VA, USA) were grown (37 °C, 8% CO2) in a DME medium with phenol red (PanEco, Moscow, Russia), 10% fetal calf serum (Thermo Fisher Scientific, Waltham, […], USA), and 2 mM L-glutamine (PanEco). Human peripheral blood monocytes were isolated from human donors’ blood (informed written consent was obtained from the donors) with Lymphosep media (MP Biomedicals, Irvine, CA, USA) and cultivated in RPMI-1640 medium with phenol red (PanEco, Russia), 10% fetal calf serum (Thermo Fisher Scientific), and 2 mM L-glutamine (PanEco). All cells were routinely tested for the absence of mycoplasma contamination (Mycoreport kit, Evrogen, Moscow, Russia).
# The in vitro wound healing (scratch) assay was performed as described in [35]. In brief, HaCaT cells were seeded in 96-well cell culture plates (5 × 10^4 cells/well) and grown for 24 h. […] Pictures were analyzed after 0 and 24 h at 20× magnification at CloneSelect Imager (Molecular Devices, San Jose, CA, USA). The center of the plate was marked as a central reference point to ensure that the same area was recorded during the time course. Digital images were taken, and the scratch area was quantified using ImageJ 1.54f software (NIH, Bethesda, MD, USA) and MS Excel 365 (Microsoft, Redmond, WA, USA) software by measuring the % of the scratch surface occupied by migrating cells.
# [2] = cited from earlier work
# Text: Ly6/uPAR proteins from different organisms are currently being considered as prototypes for new drugs.
# [3] = ELISA binding to immobilized membrane fraction of A. rubens arm tip; set-up: species or system Asterias rubens; details: detection by anti-Lystar5 serum, n = 4 (Figure 3b)
# Text: Figure 2 Design of the peptides mimicking the loop and “head” regions of Lystar5 and ELISA experiments. (a) Amino acid sequence alignment of Lystar5 and the peptides: loop I (rose), loop II (orange), loop III (blue), and head (green). Cys residues are shown in gold. Disulfide bonds are shown in brackets. Sequences of the peptides are highlighted by colors corresponding to the Lystar5 loops. The amino acids changed to increase the peptides’ stability are designated by lowercase letters. (b) Spatial structure of Lystar5 predicted from the sequence using ESMFold with regions corresponding to the synthesized peptides colored as shown in panel (a,c). Design of ELISA experiments for proof of detection of Lystar5 and the peptides by the anti-Lystar5 serum of immunized mice (left), identification of the active site of Lystar5, and evaluation of the interaction of Lystar5 and the peptides using the immobilized membrane fraction of different A. rubens tissues (center), and study of complex formation between nAChR and integrin subunits in HaCAT keratinocytes (right). […] Recombinant analogue of Lynx2 was used as a negative control. […] Bound compounds were detected by the anti-Lystar5 serum of immunized mouse. […]
molecule,measurement,setting,value
"GEDGCTAATTQLGKRYFADKSRPAWGAVECG (disulfide 5-30 (inferred)) [loop III, C-amidated peptide mimicking loop III of Lystar5: […]]","collective migration of HaCaT keratinocytes (scratch assay), wound closure",[1],did not affect the collective migration
α-cobratoxin,anti-cancer activity,"[2]; snake toxin from Naja kaouthia, ref [45]",effective anti-cancer agents
"VLKTCTSRQDRCG (disulfide 5-12 (inferred)) [head, C-amidated peptide mimicking the ""head"" region of Lystar5: […]]",binding to the immobilized membrane fraction of the arm tip,[3],neither Lystar5 nor its loops or “head” bound
same,"collective migration of HaCaT keratinocytes (scratch assay), wound closure",[1],did not affect the collective migration
"SLURP-1: human-secreted epithelial protein SLURP-1 (protein, UniProt P55000 23-103, looked up) Secreted Ly-6/uPAR-related …: LKCYTCKEPMTSASCRTITRCKPEDTACMTTLVTVEAEYPFNQSPVVTRSCSSSCVATDPDSIGAAHLIFCCFRDLCNSEL",anti-cancer activity,"[2]; human-secreted epithelial protein, ref [46]",effective anti-cancer agents
"Lynx1: human protein Lynx1 found in the nervous system, skin, and lungs (protein, UniProt P0DP58 21-91, looked up) Ly-6/neurotoxin-like protein 1: LDCHVCAYNGDNCFNPMRCPAMVAYCMTTRTYYTPTRMKVSKSCVPRCFETVYDGYSKHASTTSCCQYDLC",anti-cancer activity,"[2]; human protein found in the nervous system, skin, and lungs, ref [47],[48]",effective anti-cancer agents
same,cognitive dysfunctions related to the cholinergic system decline,[2]; ref [49],ameliorates cognitive dysfunctions
